SMILES strings stand for the structures. ≈ marks a conversion by molar mass, not a printed value.

From US7592335B2, “Oxazolidinone derivatives as antimicrobials” (Ranbaxy Laboratories Limited, priority 2005, dated 2009) come the findings set out here.

Test [1] concerns Haemophilus influenzae 49247. Put plainly: Haemophilus MIC, microbroth dilution method. It is filed as cell-based. Conditions: H. influ. 49247, Mueller Hinton Broth cation adjusted + yeast extract + supplements. The method, then: (§1) The compounds of the invention display antibacterial activity when tested by the agar incorporation method. The following minimum inhibitory concentrations (μg/mL) were obtained for representative compound of the invention, which is given below in the following table.
The in vitro activity for Haemophilus MICs were performed by using Microbroth dilution method as follows: Media used: Mueller Hinton Broth (MHB-Difco)−Cation adjusted+5 grams per liter Yeast extract+supplements
Preparation of drug concentrations in 96 well microtitre plates were done as per the NCCLS method. Inoculum was prepared by direct colony suspensions in normal saline and adjusted to 1 McFarland turbidity and subsequently diluted in broth 100 times as per NCCLS guidelines in order to obtain 10^5 […].
(§2) The concentration showing no growth of the inoculated culture was recorded as the MIC. Appropriate ATCC standard strains were simultaneously tested and result recorded only when the MIC's against standard antibiotics were within the acceptable range.

The subject of test [2] is Streptococcus pneumonia ATCC AB34. As to the kind of experiment: in vitro antibacterial activity, agar dilution MIC (MHA and 5% sheep blood). It is filed as cell-based, Streptococcus pneumoniae. Conditions: 18-24 hours. As for the experimental part:
as §1
(§3) Inoculum preparation for Streptococcus pneumoniae, Moraxella catarrhalis, Streptococcus pyogenes strains and the method of MIC is an agar dilution method with MHA (Mueller Hinton agar) and 5% sheep blood. Inoculum was prepared by direct colony suspension in normal saline solution and adjusting the turbidity to 1 Mcfarland and subsequently diluting as per NCCLS guidelines in order to obtain 10^4 CFU/ml. The plates were incubated in CO2 at 37° C. for 18-24 hours.
as §2

For test [3], the system named is Streptococcus pneumonia ATCC6303. Described as above. Conditions: 18-24 hours. It is filed as cell-based, Streptococcus pneumoniae. The method, then:
as §1, §3, §2

Test [4] deals with Staphylococcus aureus ATCC 25923. As to the kind of experiment: in vitro antibacterial activity, agar dilution MIC. In kind it is cell-based. The conditions noted are these: 35±2° C. The method, then:
as §1
(§4) Briefly, the compounds were dissolved in dimethylsulphoxide and doubling dilution of the compounds was incorporated into Muller Hilton agar before solidification. Inoculum for staphylococcus aureus and Enterococus strain was prepared by direct colony suspension in normal saline solution and adjusting the turbidity to 0.5 Macfarland turbidity and subsequently diluting as per NCCLS guidelines in order to obtain 10^4 CFU/spot. CFU/mL of few randomly selected cultures was performed. The cultures were replicated on agar plate using Denley's multipoint replicator. The agar plates were incubated for 18 hours-24 hours (24 hours for MRSA studies) at 35±2° C. Q.C. strains were also included in each run of the study.
as §2

The subject of test [5] is Enterococcus faecalis ATCC 29212. Put plainly: in vitro antibacterial activity, agar dilution MIC. In kind it is cell-based. The conditions noted are these: 35±2° C. The method, then:
as §1, §4, §2
(In general: In agar dilution the substance is mixed into plates at graded concentrations.)

Test [6] relates to Vancomycin-resistant enterococci ATCC 6A. As to the kind of experiment: in vitro antibacterial activity, agar dilution MIC. In kind it is cell-based. The conditions noted are these: VRE ATCC 6A, 18-24 hours, 35±2° C. The method, then:
as §1, §4, §2

Test [7] concerns Methicilline Resistant Staphylococcus aureus ATCC562. As to the kind of experiment: in vitro antibacterial activity, agar dilution MIC. It is filed as cell-based. The conditions noted are these: 24 hours, 35±2° C. As for the experimental part:
as §1, §4, §2

For test [8], the system named is Methicilline Resistant Staphylococcus aureus ATCC33. As to the kind of experiment: in vitro antibacterial activity, agar dilution MIC. In kind it is cell-based. The conditions noted are these: 24 hours, 35±2° C. As for the experimental part: as §1, §4, §2
The test system of test [9] is Staphylococcus aureus ATCC 15187. As to the kind of experiment: in vitro antibacterial activity, agar dilution MIC. In kind it is cell-based. The conditions noted are these: 35±2° C. The method, then: as §1, §4, §2
Test [10] relates to Moraxella catarrhalis ATCC 8176. Put plainly: in vitro antibacterial activity, agar dilution MIC (MHA and 5% sheep blood). It is filed as cell-based. The conditions noted are these: 18-24 hours. As for the experimental part: as §1, §3, §2
Test [11] relates to Streptococcus pyogenes ATCC 19615. Described as above. In kind it is cell-based. Conditions: 18-24 hours. As for the experimental part:
as §1, §3, §2

With `CC(=O)NCC1CN(c2ccc(N3CC4NCCOC4C3)c(F)c2)C(=O)O1` (stereo not shown) [Compound No. 05, N-[(3-{3-fluoro-4-[(7aE)-hexahydropyrrolo[3,4-b][1,4]oxazin-6(2H)-yl]phenyl}-2-oxo-1,3-oxazolidin-5-yl)methyl]acetamide], the “minimum inhibitory concentration, H. inf 49247” value in test [1] stood at 8 µg/mL. Also, the “minimum inhibitory concentration, S. pneum AB34” value in test [2] (CO2, 37° C.) was 2 µg/mL (≈ 5.29 µM). For the same molecule, the “minimum inhibitory concentration, S. pneum 6303” value in test [3] (CO2, 37° C.) was found to be 2 µg/mL (≈ 5.29 µM). For the same molecule, in test [4] (S. aureus ATCC 25923, 18-24 hours), the “minimum inhibitory concentration, S. aureus 25923” value worked out at 8 µg/mL (≈ 21.1 µM). The “minimum inhibitory concentration, E. faecalis 29212” value in test [5] (Ent. faecalis ATCC 29212, 18-24 hours) is 2 µg/mL (≈ 5.29 µM). Also, in [6], the “minimum inhibitory concentration, VRE 6A” value stood at 2 µg/mL (≈ 5.29 µM). In [7], the “minimum inhibitory concentration, MRSA 562” value was 4 µg/mL (≈ 10.6 µM). For the same molecule, in test [8], the “minimum inhibitory concentration, MRSA 33” value was found to be 4 µg/mL (≈ 10.6 µM). The “minimum inhibitory concentration, S. aureus 15187” value in test [9] (S. aureus ATCC 15187, 18-24 hours) was 8 µg/mL (≈ 21.1 µM). Further, the “minimum inhibitory concentration, M. catt 8176” value in test [10] (M. catt. ATCC 8176, CO2, 37° C.) is above 16 µg/mL. The “minimum inhibitory concentration, S. pyogenes 19615” value in [11] (Strep. pyog. ATCC 19615, CO2, 37° C.) came to 2 µg/mL (≈ 5.29 µM).

As to `CC(=O)NC[C@H]1CN(c2ccc(N3CCOCC3)c(F)c2)C(=O)O1` [Linezolid], the MIC in [1] (Haemophilus influenzae, read-out: minimum inhibitory concentration, H. inf 49247) amounted to 8 µg/mL; in test [2] (Streptococcus pneumoniae, ATCCAB34, S. pneum ATCC AB34, CO2, 37° C., read-out: minimum inhibitory concentration, S. pneum AB34) it was 2 µg/mL (≈ 5.93 µM); in test [3] (Streptococcus pneumoniae, S. pneum ATCC6303, CO2, 37° C., read-out: minimum inhibitory concentration, S. pneum 6303), 1 µg/mL (≈ 2.96 µM); in test [4] (Staphylococcus aureus, ATCC25923, S. aureus ATCC 25923, 18-24 hours, read-out: minimum inhibitory concentration, S. aureus 25923), 2 µg/mL (≈ 5.93 µM); in [5] (Enterococcus faecalis, ATCC29212, Ent. faecalis ATCC 29212, 18-24 hours, read-out: minimum inhibitory concentration, E. faecalis 29212) it was 2 µg/mL (≈ 5.93 µM); in test [6] (Enterococcus, read-out: minimum inhibitory concentration, VRE 6A), 2 µg/mL (≈ 5.93 µM). The MIC in test [7] (Staphylococcus aureus, ATCC 562 / MRSA, read-out: minimum inhibitory concentration, MRSA 562) turned out to be 2 µg/mL (≈ 5.93 µM); in test [8] (Staphylococcus aureus, ATCC 33 / MRSA, read-out: minimum inhibitory concentration, MRSA 33) it was 2 µg/mL (≈ 5.93 µM); in test [9] (Staphylococcus aureus, ATCC15187, S. aureus ATCC 15187, 18-24 hours, read-out: minimum inhibitory concentration, S. aureus 15187), 2 µg/mL (≈ 5.93 µM); in test [10] (Moraxella catarrhalis, ATCC8176, M. catt. ATCC 8176, CO2, 37° C., read-out: minimum inhibitory concentration, M. catt 8176), 2 µg/mL (≈ 5.93 µM); in test [11] (Streptococcus pyogenes, ATCC19615, Strep. pyog. ATCC 19615, CO2, 37° C., read-out: minimum inhibitory concentration, S. pyogenes 19615), 2 µg/mL (≈ 5.93 µM).
